Results reported in US8658646B2, “Pyrrolopyrazine kinase inhibitors” (Hoffmann-LaRoche Inc., priority 2011, dated 2014).

Key:
[1] = molecular target: T1, JAK3: Recombinant human kinase domain (Homo sapiens, UniProt P52333); assay: Determination of IC50 of Janus Kinase (JAK) inhibition, radioactive end-point 33P-ATP assay, JAK3; type: biochemical; settings: ATP 1.5 uM, peptide 50 uM, 20 minutes, read-out: JAK3-INHIB-DR/v1~NO ADDITIVE~Enzyme_Conc = 100
T1 construct: JAK3: Recombinant human kinase domain from Millipore (Cat #14-629) or prepared; purchased Millipore 14-629
T1 sequence (P52333 822-1111 limits assumed): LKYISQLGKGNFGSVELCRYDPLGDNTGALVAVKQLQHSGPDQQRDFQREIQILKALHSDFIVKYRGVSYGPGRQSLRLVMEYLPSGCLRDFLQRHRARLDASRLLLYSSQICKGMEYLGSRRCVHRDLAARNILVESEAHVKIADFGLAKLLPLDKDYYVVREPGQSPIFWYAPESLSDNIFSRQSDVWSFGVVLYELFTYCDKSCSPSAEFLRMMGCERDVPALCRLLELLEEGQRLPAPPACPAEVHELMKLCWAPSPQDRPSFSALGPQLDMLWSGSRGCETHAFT

[2] = molecular target: T2, recombinant human SYK360-635 (Homo sapiens, UniProt P43405); assay: Determination of IC50 of Spleen Tyrosine Kinase (SYK) inhibition, 33P ATP filtration assay; type: biochemical; settings: SYK aa 360-635 0.5 nM; ATP 20 μM, peptide 5 μM, 0.1% BSA; read-out: SYK_ENZYME_FILTRATION/v1, BSA
T2 construct: made in house

| Structure (SMILES) | IC50 [1] [nM] | IC50 [2] [nM] |
| --- | --- | --- |
| C[C@@H](NC(=O)c1c[nH]c2ncc(-c3nn(C)c4c(F)c(F)ccc34)nc12)C(=O)N1CC(C#N)C1 [Example I-86, 2-(6,7-Difluoro-1-methyl-1H-indazol-3-yl)-5H-pyrrolo[2,3-b]pyrazine-7-carboxylic acid [(R)-2-(3-cyano-azetidin-1-yl)-1-methyl-2-oxo-ethyl]-amide] | 0.745 | 109 |
| CCc1ccc2c(-c3cnc4[nH]cc(C(=O)N[C@H](C)C(=O)N5CC(C#N)C5)c4n3)nn(C)c2c1 [Example I-87] | 1.78 | 158 |
| CC(NC(=O)c1c[nH]c2ncc(-c3nn(C)c4cc(Cl)ccc34)nc12)C1CCCO1 (centres unmarked) [Example I-154, 2-(6-Chloro-1-methyl-1H-indazol-3-yl)-5H-pyrrolo[2,3-b]pyrazine-7-carboxylic acid [1-(tetrahydro-furan-2-yl)-ethyl]-amide] | 4.95 | 47.3 |
| Cn1nc(-c2cnc3[nH]cc(C(=O)N[C@H]4CC[C@@H](N)CC4)c3n2)c2ccc(Cl)cc21 [Example I-145, 2-(6-Chloro-1-methyl-1H-indazol-3-yl)-5H-pyrrolo[2,3-b]pyrazine-7-carboxylic acid (cis-4-amino-cyclohexyl)-amide] | 17.4 | 1.9 |
| Cn1nc(-c2cnc3[nH]cc(C(=O)NC(C)(C)CO)c3n2)c2cc(OC(F)F)ccc21 [Example I-285, 2-(5-Difluoromethoxy-1-methyl-1H-indazol-3-yl)-5H-pyrrolo[2,3-b]pyrazine-7-carboxylic acid (2-hydroxy-1,1-dimethyl-ethyl)-amide] | 82.5 | 4.58 |
| COC[C@H](C)NC(=O)c1c[nH]c2ncc(-c3nn(CCN4CC[C@H](F)C4)c4cc(F)ccc34)nc12 [Example I-243, 2-{6-Fluoro-1-[2-((S)-3-fluoro-pyrrolidin-1-yl)-ethyl]-1H-indazol-3-yl}-5H-pyrrolo[2,3-b]pyrazine-7-carboxylic acid ((S)-2-methoxy-1-methyl-ethyl)-amide] | 1.47 | 70.5 |
| COC[C@H](C)NC(=O)c1c[nH]c2ncc(-c3nn(Cc4cccnc4)c4cc(F)ccc34)nc12 [Example I-241, 2-(6-Fluoro-1-pyridin-3-ylmethyl-1H-indazol-3-yl)-5H-pyrrolo[2,3-b]pyrazine-7-carboxylic acid ((S)-2-methoxy-1-methyl-ethyl)-amide] | 0.41 | 20.3 |
| CC(Cc1ccccc1)NC(=O)c1c[nH]c2ncc(-c3nn(C)c4cc(Cl)ccc34)nc12 (centres unmarked) [Example I-150, 2-(6-Chloro-1-methyl-1H-indazol-3-yl)-5H-pyrrolo[2,3-b]pyrazine-7-carboxylic acid (1-methyl-2-phenyl-ethyl)-amide] | 22.5 | 1540 |
| CC(NC(=O)c1c[nH]c2ncc(-c3nn(C)c4cc(Cl)ccc34)nc12)c1ncco1 (centres unmarked) [Example I-48, 2-(6-Chloro-1-methyl-1H-indazol-3-yl)-5H-pyrrolo[2,3-b]pyrazine-7-carboxylic acid (1-oxazol-2-yl-ethyl)-amide] | 4.91 | 22.1 |
| Cn1nc(-c2cnc3[nH]cc(C(=O)NC4CCC(NS(C)(=O)=O)C4)c3n2)c2ccc(Cl)cc21 (centres unmarked) [Example I-38, 2-(6-Chloro-1-methyl-1H-indazol-3-yl)-5H-pyrrolo[2,3-b]pyrazine-7-carboxylic acid (3-methanesulfonylamino-cyclopentyl)-amide] | 9.01 | 15.9 |
| Cn1nc(-c2cnc3[nH]cc(C(=O)NC4CCCCC4)c3n2)c2ccc(Cl)cc21 [Example I-110, 2-(6-Chloro-1-methyl-1H-indazol-3-yl)-5H-pyrrolo[2,3-b]pyrazine-7-carboxylic acid cyclohexylamide] | 7.3 | 249 |
| Cn1nc(-c2cnc3[nH]cc(C(=O)NC4CCCC(N)C4)c3n2)c2ccc(Cl)cc21 (centres unmarked) [Example I-169, 2-(6-Chloro-1-methyl-1H-indazol-3-yl)-5H-pyrrolo[2,3-b]pyrazine-7-carboxylic acid (3-amino-cyclohexyl)-amide] | 391 | 12 |
| Cn1nc(-c2cnc3[nH]cc(C(=O)N[C@@H]4CCc5ccccc54)c3n2)c2ccc(Cl)cc21 [Example I-157, 2-(6-Chloro-1-methyl-1H-indazol-3-yl)-5H-pyrrolo[2,3-b]pyrazine-7-carboxylic acid (R)-indan-1-ylamide] | 71.6 | 413 |
| CCn1nc(-c2cnc3[nH]cc(C(=O)N[C@H](C)C(=O)N4CC(C#N)C4)c3n2)c2ccc(Cl)cc21 [Example I-85, 2-(6-Chloro-1-ethyl-1H-indazol-3-yl)-5H-pyrrolo[2,3-b]pyrazine-7-carboxylic acid [(R)-2-(3-cyano-azetidin-1-yl)-1-methyl-2-oxo-ethyl]-amide] | 0.9 | 33.4 |
| COC[C@H](C)NC(=O)c1c[nH]c2ncc(-n3cnc4cc(Cl)ccc43)nc12 [Example I-223, 2-(5-Chloro-benzoimidazol-1-yl)-5H-pyrrolo[2,3-b]pyrazine-7-carboxylic acid ((S)-2-methoxy-1-methyl-ethyl)-amide] | 189 | 416 |
| Cn1nc(-c2cnc3[nH]cc(C(=O)N[C@H]4CC[C@@H](O)CC4)c3n2)c2ccc(Cl)cc21 [Example I-158, 2-(6-Chloro-1-methyl-1H-indazol-3-yl)-5H-pyrrolo[2,3-b]pyrazine-7-carboxylic acid (cis-4-hydroxy-cyclohexyl)-amide] | 2.02 | 9.7 |

The remaining lines, values ahead:

| IC50 [1] [nM] | IC50 [2] [nM] | Structure (SMILES) |
| --- | --- | --- |
| 16.3 | 17.3 | CC[C@H](CO)NC(=O)c1c[nH]c2ncc(-c3nn(C)c4cc(Cl)ccc34)nc12 [Example I-161, 2-(6-Chloro-1-methyl-1H-indazol-3-yl)-5H-pyrrolo[2,3-b]pyrazine-7-carboxylic acid ((R)-1-hydroxymethyl-propyl)-amide] |
| 4.41 | 49.5 | CC(C)NC(=O)c1c[nH]c2ncc(-c3nn(CCN4CCOCC4)c4cc(Cl)cc(F)c34)nc12 [Example I-129, 2-[6-Chloro-4-fluoro-1-(2-morpholin-4-yl-ethyl)-1H-indazol-3-yl]-5H-pyrrolo[2,3-b]pyrazine-7-carboxylic acid isopropylamide] |
| 10.8 | 13.8 | CC(C)NC(=O)c1c[nH]c2ncc(-c3nn(C)c4cc(F)cc(F)c34)nc12 [Example I-101, 2-(4,6-Difluoro-1-methyl-1H-indazol-3-yl)-5H-pyrrolo[2,3-b]pyrazine-7-carboxylic acid isopropylamide] |
| 5.83 | 66.5 | COC[C@@H](C)NC(=O)c1c[nH]c2ncc(-c3nn(C)c4cc(Cl)ccc34)nc12 [Example I-159, 2-(6-Chloro-1-methyl-1H-indazol-3-yl)-5H-pyrrolo[2,3-b]pyrazine-7-carboxylic acid ((R)-2-methoxy-1-methyl-ethyl)-amide] |
| 27.4 | 31.9 | C[C@@H](NC(=O)c1c[nH]c2ncc(-c3nn(C)c4cc(F)ccc34)nc12)C1=NCCO1 [Example I-60, 2-(6-Fluoro-1-methyl-1H-indazol-3-yl)-5H-pyrrolo[2,3-b]pyrazine-7-carboxylic acid [(R)-1-(4,5-dihydro-oxazol-2-yl)-ethyl]-amide] |
| 5.91 | 149 | COC[C@H](CC(C)C)NC(=O)c1c[nH]c2ncc(-c3nn(C)c4cc(F)ccc34)nc12 [Example I-179, 2-(6-Fluoro-1-methyl-1H-indazol-3-yl)-5H-pyrrolo[2,3-b]pyrazine-7-carboxylic acid ((S)-1-methoxymethyl-3-methyl-butyl)-amide] |
| 31.7 | 168 | COC[C@@H](NC(=O)c1c[nH]c2ncc(-c3nn(C)c4cc(F)ccc34)nc12)[C@H](C)O [Example I-188, 2-(6-Fluoro-1-methyl-1H-indazol-3-yl)-5H-pyrrolo[2,3-b]pyrazine-7-carboxylic acid ((1R,2S)-2-hydroxy-1-methoxymethyl-propyl)-amide] |
| 4.72 | 23.4 | CC(C)NC(=O)c1c[nH]c2ncc(-c3nn(CCCN4CCOCC4)c4cc(Cl)cc(F)c34)nc12 [Example I-132, 2-[6-Chloro-4-fluoro-1-(3-morpholin-4-yl-propyl)-1H-indazol-3-yl]-5H-pyrrolo[2,3-b]pyrazine-7-carboxylic acid isopropylamide] |
| 12.8 | 3.08 | Cn1nc(-c2cnc3[nH]cc(C(=O)NC4(C)CC4)c3n2)c2ccc(F)cc21 [Example I-378, 2-(6-Fluoro-1-methyl-1H-indazol-3-yl)-5H-pyrrolo[2,3-b]pyrazine-7-carboxylic acid (1-methyl-cyclopropyl)-amide] |
| 1.14 | 17 | COC[C@H](C)NC(=O)c1c[nH]c2ncc(-c3nn(C)c4cc(Cl)ccc34)nc12 [Example I-165, 2-(6-Chloro-1-methyl-1H-indazol-3-yl)-5H-pyrrolo[2,3-b]pyrazine-7-carboxylic acid ((S)-2-methoxy-1-methyl-ethyl)-amide] |
| 19.7 | 9.95 | CC(NC(=O)c1c[nH]c2ncc(-c3nn(C)c4cc(F)ccc34)nc12)[C@H]1C[C@@H](O)C1 (stereo partly drawn) [Example I-73, 2-(6-Fluoro-1-methyl-1H-indazol-3-yl)-5H-pyrrolo[2,3-b]pyrazine-7-carboxylic acid [1-(cis-3-hydroxy-cyclobutyl)-ethyl]-amide] |
| 68.6 | 144 | C[C@H](CN1CC(F)C1)NC(=O)c1c[nH]c2ncc(-c3nn(C)c4cc(Cl)ccc34)nc12 [Example I-123, 2-(6-Chloro-1-methyl-1H-indazol-3-yl)-5H-pyrrolo[2,3-b]pyrazine-7-carboxylic acid [(R)-2-(3-fluoro-azetidin-1-yl)-1-methyl-ethyl]-amide] |
